Series [1] concerns the target T1, triosephosphate isomerase (TPI) (Giardia intestinalis, UniProt P36186).
T1 construct: His-tag (TEV-cleavable) (cleaved yes); made in house
Further details: method as in PMID 28798383. The following applies: BHO2 comparison; cited from earlier work.

The target of series [2] is T1, triosephosphate isomerase (TPI). The following applies: cited from earlier work.
Series [3] has the same target. Also noted: method as in PMID 28798383. The settings on record: previously reported; cited from earlier work.
The subject of series [4] is Giardia lamblia trophozoites. Further details: method as in PMID 28798383. The settings on record: previously reported; cited from earlier work.
The next series concerns VERO cells. Also noted: method as in PMID 28798383. The settings on record: cited from earlier work.
Series [5] concerns the target T1, triosephosphate isomerase (TPI). Kind of series: Inactivation of recombinant TPI enzyme with compounds. Type of series: biochemical. As to the method: The TPI from G. lamblia was expressed and purified. […] When the culture reached A600 = 0.8, it was induced using 0.4 mM IPTG and incubated overnight at 30 °C with shaking at 180 rpm. After the bacteria were collected by centrifugation (10,000× g, 15 min) and suspended in 40 mL of lysis buffer, pH 8.0 (50 mM Tris, 50 mM NaCl, 5 mM β-mercaptoethanol, and 1 mM phenylmethylsulfonyl fluoride). The bacterial suspension was disrupted by sonication and centrifuged at 9000× g for 1 h at 4 °C. Protein purification was performed by immobilized metal affinity chromatography (IMAC) using a Profinity Ni^2+ charged resin (Bio-Rad) previously reported by Enriquez-Flores et al.. The His-tag sequence was removed from the TIM by incubation with TEVP at a molar ratio of 30:1 (TPI/TEVP) at room temperature for 17 h in digestion buffer, pH 8.0 (50 mM Tris, 0.5 mM ethylene diamine tetraacetic acid (EDTA), and 1 mM dithiothreitol). The enzyme concentration was spectrophotometrically determined at 280 nm, and the enzyme was used immediately.
Enzyme activity of TPI was determined spectrophotometrically as described by monitoring the conversion of glyceraldehyde-3-phosphate (GAP) to dihydroxyacetone phosphate (DHAP). […] The standard reaction mixture contained 1 mM GAP, 0.2 mM NADH, and 0.9 units/mL of α-GDH in TE buffer (100 mM triethanolamine, 10 mM EDTA, pH 7.4). The reaction was initiated by adding 5 ng/mL of TPI to the reaction mixture.
To determine the inactivation of the TPI enzyme from G. lamblia, we performed inactivation assays of the enzyme in the presence of the synthesized compounds. The compounds’ stock solutions were freshly prepared using 100% dimethyl sulfoxide (DMSO) as the solvent at 25 mM. […] After the incubation period, the enzymatic activity was measured by withdrawing an aliquot of each experimental condition, as described above. The results were expressed in terms of the percentage of activity versus the compound’s concentration.

The test system of series [6] is Giardia lamblia trophozoites. Nature of the series: Antigiardial activity on G. lamblia trophozoites, trypan blue dye exclusion. The settings on record: Giardia duodenalis, 48 h at 37 °C, pH 7.4, trypan blue. Type of series: cell-based. As to the method: Giardia lamblia WB strain (ATCC number 30957) was grown in a modified TYI-S-33 medium supplemented with 10% fetal bovine serum. The parasite was cultivated in 15 mL screw-capped borosilicate glass tubes containing 13 mL medium. The tubes were incubated on a 15° horizontal slant at 37 °C. Giardia was harvested from confluent culture by chilling the tubes on ice for 5‒10 min to detach cells, followed by centrifugation at 800× g for 5 min.
The antigiardial activity of the prepared compounds was tested as described. One milligram of a test compound was dissolved in 10 L of DMSO and topped up with 1 mL growth medium. The solution was filter-sterilized using 0.22-m syringe filters and the appropriate volumes of the solutions were taken to prepare the concentration of each compound in 1.5 mL microtubes. For each preparation, concentrations of 500, 250, 125, 62, and 31 µg/mL were prepared in a final volume of 1.5 mL. Each tube was inoculated with 5 × 10^4 trophozoites of G. lamblia and then incubated for 48 h at 37 °C. After incubation, 75 L of the treated trophozoites were subcultured individually for another 48 h in a fresh medium free of compounds. At the end of this period, the viable trophozoites were counted. Each compound was assayed in duplicate in three independent experiments. In each assay, appropriate controls were also tested, including a sample without compound and another with DMSO.
The parasites in each tube were counted using a standard hemocytometer at 10× objective. In each count, trypan blue was employed to distinguish live parasites from dead ones. To permit detachment of Giardia, the tubes were placed on ice for 10 min and the parasites were then centrifuged at 800× g for 10 min. The supernatant was discarded and 1 mL fresh medium was added to each tube. The final suspension was prepared by mixing 25 μL of the parasite suspension in each tube with 100 μL of 0.4% trypan blue in phosphate-buffered saline (PBS). The 50% inhibitory concentration (IC50) was employed as a parameter for biological activity. The IC50 is the concentration of compounds that cuts the number of parasites to half that in the negative control (growth medium + DMSO + parasites). Lastly, the 50% inhibitory concentration (IC50) was calculated.

Each structure is given as a SMILES string. Like-named read-outs stand apart in the source and are kept apart here.

T1 sequence (P36186 whole entry): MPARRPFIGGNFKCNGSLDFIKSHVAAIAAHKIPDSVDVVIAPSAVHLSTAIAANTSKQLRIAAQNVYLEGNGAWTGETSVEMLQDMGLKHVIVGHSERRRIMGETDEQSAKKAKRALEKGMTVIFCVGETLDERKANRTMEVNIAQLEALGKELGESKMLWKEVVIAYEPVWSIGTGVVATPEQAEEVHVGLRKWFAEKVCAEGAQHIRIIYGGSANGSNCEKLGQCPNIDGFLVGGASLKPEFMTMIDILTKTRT

For orientation: IC50 means the concentration at which inhibition is half-maximal. Regarding `COc1c(C)cnc(C[S+]([O-])c2nc3ccc(C)cc3[nH]2)c1C` (stereo not drawn) [BHO2], in series [1], the “Loss of intrinsic fluorescence signal of TPI” value is given as 25%. Also, the “Second-order inactivation constant k2” value in series [2] (previously reported) is 1.6 M⁻¹ s⁻¹. Further, the IC50 in series [3] is 64 µM; in series [4], 120 µM. The “CC50 for mammal cells (VERO)” value in the series on VERO cells is on record as “millimolar ranges”.
Consider `[O-][S+](Cc1ccccn1)c1nc2ccccc2[nH]1` (stereo not drawn) [H-BZM1], for which the IC50 was more than 500 µM in series [5] and 676 µM in series [6]. Also, the “Loss (reduction) of TPI enzyme activity” value in series [5] (500 µM compound, 2 h at 37 °C) is reported as 25%.
For `COc1ccc2[nH]c([S+]([O-])Cc3ncc(C)c(OC)c3C)nc2c1` (stereo not drawn) [Omeprazole], the “Second-order inactivation constant k2” value in series [2] (previously reported) is 0.78 M⁻¹ s⁻¹. Moreover, the half-maximal inhibitory concentration (IC50) in series [3] is 225 µM; in series [4], 300 µM.
Regarding `COCCCOc1ccnc(C[S+]([O-])c2nc3ccccc3[nH]2)c1C` (stereo not drawn) [rabeprazole], the “Second-order inactivation constant k2” value in series [2] (reported by García-Torres et al.) is 2.66 M⁻¹ s⁻¹.

The record behind these values is paper PMC7504735, “Enhanced Antigiardial Effect of Omeprazole Analog Benzimidazole Compounds” (Molecules, 2020).
